Here are results for 1 compound from patent publication US20050074867A1, “Preservation of competent cells at ambient temperatures” (priority 2001, published 2005).

The structures appear in SMILES notation.

The test system of this assay is logarithmic E. coli cells. Nature of the assay: Preservation survival and stability of logarithmic E. coli cells loaded in vitro before foam drying. The format is cell-based. The method, then:
(3) Loading of fresh electrocompetent E. coli cells before preservation: When applicable, one aliquot of the cell concentrate (3.2 ml of cells in PBS buffer, approx. 2×10^10 cfu/ml) was mixed with 0.8 ml of 50% methyl-glucoside (MAG; 10% final concentration) and incubated at 37° C. for 30 minutes (in vitro loading). A second aliquot (3.2 ml of the cell concentrate) was mixed with 0.8 ml of PBS buffer and incubated on ice for 30 minutes (control, unloaded cells). Similar to loading with MAG, the cells were loaded with 2-deoxyglucose (2-DOG) as described in Example 5 infra.
(4) Preservation of electrocompetent E. coli cells: The cells (resuspended in PBS buffer or on 20% sucrose) were mixed with an equal mass of preservation solution consisting of 45% 2:1 sucrose:raffinose or 45% 4:1 sucrose:MAG on ice. Altematively, the cell pellets were resuspended directly in 22.5% sucrose:raffinose or 22.5% 4:1 sucrose:MAG. The 0.5 g aliquots were distributed in 5 ml glass serum vials or 0.2 g aliquots were distributed in 1.2 ml glass serum vials. To determine the survival in preservation solution before drying, cell-containing mixtures were diluted in PBS buffer containing 20% sucrose and appropriate dilutions were spread plated in duplicate on L-agar plates.
The samples were dried by foam formation. The mixtures were foamed at 0° C. and kept at that temperature until foam formation occurred. After foam was well formed, shelf temperature was increased to 20° C. and drying continued overnight (at least 12 hours).
(5) Assaying the preserved E. coli cells: Dried samples were rehydrated at room temperature. 1 ml of rehydration solution (20% sucrose) was added to the 5 ml vials and 0.2 ml was added to the 1.2 ml vials. For the determination of preservation survival, rehydrated cells were diluted and spread plated in duplicate on L-agar plates. Plates were incubated at 37° C. overnight and colonies were counted the following day.
Bacterial culture was grown until OD550=0.5 was reached (mid-log growth stage). The cell concentrates were prepared as described previously. Control cells, which were not loaded, were incubated on ice for 30 minutes. Cell concentrates were incubated with different amounts (0.15-1%, 5%, 10% and 15%) of glucose and glucose nonmetabolizable analogs at 37° C. for 30 minutes (loading). These mixtures were preserved as described previously.
Accumulation of MAG in the cells prior to drying enhances preservation of logarithmic E. coli cells. Two cell concentrates (harvested at mid-log growth stage) were prepared as described previously. To induce uptake of MAG, 0.5% glucose was added to the growth medium (“induced culture”). Both concentrates were incubated with 10% MAG at 37° C. for 30 minutes (loading). When loading was completed, one concentrate was diluted 100-fold in PBS buffer and incubated at 37° C. for an additional 30 minutes to induce expulsion of the pre-accumulated MAG. Both concentrates were preserved as described previously.
Mid-logarithmic culture was prepared as described previously. 0.5% glucose was added to the growth medium (“induced cells”). The culture was concentrated 10-fold and the concentrates were incubated for 30 minutes with 10% MAG at different temperatures (0, 20, 40, and 60° C.). The mixtures were preserved as described previously.
Effect of incubation time on accumulation of MAG in logarithmic E. coli cells. Cell concentrates were prepared as described previously (0.5% glucose was added to the growth medium) and incubated with 10% MAG at 37° C. for 0, 2.5, 5, 15, 30, and 60 minutes. The mixtures were preserved as described previously.
Effect of growth stage on accumulation of MAG in E. coli cells. E. coli cultures were grown in L-broth with 0.5% glucose as described previously and harvested at OD550=0.1 (early-log), 0.5 (mid-log), 1.0 (late-log) and 2.0 (stationary cells). The cells in each culture were concentrated and split in two aliquots. […]

`O=CC[C@@H](O)[C@H](O)[C@H](O)CO` [Sample 2-DOG, 2-deoxyglucose]: the survived drying was 9-12% (mid-logarithmic cells loaded with 0.1-1% at 37° C. for 30 minutes), 20% (mid-logarithmic cells loaded with 5% at 37° C. for 30 minutes), 16% (mid-logarithmic cells loaded with 10% at 37° C. for 30 minutes) and 20% (mid-logarithmic cells loaded with 15% at 37° C. for 30 minutes).
